Measured values reported in patent US20220104481A1, “CRYOPRESERVATION OF STEM CELLS” (TiGenix, S.A.U., priority 2019, published 2022).

System: ASCs
Assay: MTS assay after post-thaw seeding of ASCs pretreated with compounds prior to freezing
Type: cell-based, human
Conditions: 24 hours pretreatment before freezing (LY294 10 μM, sc79 10 μM, Exendin-4 20 nM)
Procedure: ASCs from donor A were thawed by warming the vials in a 37° C. bath and diluting the freezing medium containing DMSO with fresh complete DMEM (DMEM/F-12 media—GlutaMAX™-I, Gibco, supplemented with 100 μg/mL penicillin/streptomycin and 10% FBS). Cells were centrifuged at 450 g for 6 minutes at room temperature to eliminate leftover DMSO and plated in T-175 flasks at 20.000 cells/cm^2 in complete DMEM.
A 600 mM stock of NAC (SIGMA) was prepared in Milli-Q water (Millipore). This stock was used for pre-treatment and post-treatment by adding directly 50 μL stock solution per well into 5 mL of medium, making a final concentration of 6 mM. For 2 mM, only 16.7 μL were added per well, and in the case of 12 mM, 100 μL of stock were added. DMSO was used as the vehicle for sc79 and LY294.
Following the pretreatment step, the medium was removed, the cells were washed with PBS and trypsinized using trypsin-EDTA 0.25% (ThermoFisher) for 8 minutes at 37° C. After trypsin inactivation with complete DMEM, cells were harvested and centrifuged prior to resuspension in freezing medium (FBS with 10% DMSO), and frozen into 500,000 or 1 million cells per vial and stored in liquid nitrogen for further use. Specifically, the cells were frozen at −80° C. for 24 hours in a Cool Cell® device (BioCision) and then transferred to a liquid nitrogen storage container. All experiments were performed in incubators and 37° C., 5% CO2.
[…] The CellTiter 96° Aqueous One Solution Cell Proliferation Assay is a colorimetric method for determining the number of viable cells. The CellTiter 96° Aqueous One Solution reagent contains a tetrazolium compound [3-(4,5-dimethylthiazol-2-yl)-5-(3-carboxymethoxyphenyl)-2-(4-sulfophenyl)-2H-tetrazolium, MTS] and an electron coupling reagent (phenazine ethosulfate; PES). The MTS tetrazolium compound is bioreduced by cells—presumably by NADPH or NADH produced by dehydrogenase enzymes in metabolically active cells—into a coloured formazan product that is soluble in tissue culture medium.
Briefly, 40 μL of the reagent was added to 200 μL of complete DMEM in each well and absorbance was measured after 2-3 hours at 490 nm using a […]. Each condition was measured in 6 technical repeats. The MTS assay results are presented as percentage of absorbance at 490 nm relative to the non-treated (NT) cells.

Molecule | effect of pre-treatment on post-thaw cell number
O=c1cc(N2CCOCC2)oc2c(-c3ccccc3)cccc12 [LY294] | did not show reproducible effects on cell number
CCOC(=O)C1=C(N)Oc2ccc(Cl)cc2C1C(C#N)C(=O)OCC (stereo not shown) [sc79] | did not show reproducible effects on cell number
Exendin-4 | did not show reproducible effects on cell number
IL6: pre-treatment assessed in addition to NAC; no concentration given | did not show reproducible effects on cell number
